How the values were obtained:
[1] = tested on: SK-OV-3 cells; assay: FAK silencing combined with Docetaxel, Annexin V apoptosis by flow cytometry; assay type: cell-based; settings: SK-OV-3 cells transfected with FAK siRNA 50 nM for 24 hours, then 0.3 µM or 1 µM Docetaxel 48 hours; FAK silencing group compared with control siRNA group
[2] = tested on: SK-OV-3 cells; assay: FAK silencing combined with Docetaxel, Calreticulin (ICD target) by flow cytometry; assay type: cell-based; settings: SK-OV-3 cells transfected with FAK siRNA 50 nM for 24 hours, then 1 µM Docetaxel 48 hours; vs control siRNA
Procedure: • 1. FAK silencing combined with Docetaxel promotes apoptosis of ovarian cancer cells […] The siRNA technology was used in the in vitro assay to reduce the expression level of FAK, and combined with Docetaxel for 48 hours; flow cytometry was used to detect apoptosis in control (DMSO) and FAK silenced cells • 2. FAK silencing combined with Docetaxel can effectively promote the production of ICD in ovarian cancer cells SK-OV-3 The siRNA technology was used in the in vitro assay to reduce the expression level of FAK, and combined with Docetaxel for 48 hours. Flow cytometry was used to detect the expression of Calreticulin, the main target of ICD.
Assay antibodies: recombinant Alexa Fluor® 647 fluorescent Anti-Calreticulin antibody (Abcam, ab196159), Annexin V apoptosis detection kit (Invitrogen, A35110).
FAK siRNA was provided by Gene Pharma, and the sequence is shown in the following table: • F: […]; • R: […]
• 1. […] After the transfection for 24 hours, the cells were treated with 0.3 µM or 1 µM of Docetaxel for 48 hours, respectively. The cells were stained using Annexin V kit and detected by flow cytometry. The apoptotic values were counted, compared with those of the control group, and plotted using Graphpad 8.0. […] The cells were fluorescent stained with Calreticulin antibody, and the staining results were analyzed by flow cytometry.

[3] = tested on: colon cancer CT26 cells; assay: IN10018 and Docetaxel: microscopy and CRT/Annexin-V/PI flow cytometry; assay type: cell-based, mouse; settings: 48 hours, IN10018 5 µM, Docetaxel 0.1 µM, alone or combined
Procedure: CT26 cells (Institute of Cell Biology, Chinese Academy of Sciences) were cultured with RPMI-1640 (Shanghai Basalmedia, catalog number: L210KJ, batch number: F210916) + 10% FBS (Gibco, catalog number: 10099-141c, batch number: 2158737cp), and passaged twice. When the cells were in good condition, they were placed in a 24-well plate. After 24 hours of cell spreading, four groups were set up. The first group was the control group, in which culture medium was added; the second group was IN10018 at a concentration of 5µM; the third group was Docetaxel (MCE, classification number: HY-B0011, batch number: 111613) with a concentration of 0.1µM; and the fourth group was the combination group of IN10018 (5 µM) and Docetaxel (0.1µM). The drugs were mixed and cultured in a 5 % CO2 incubator at 37°C for 48 hours.
After 48 hours of drug action, the cells were observed and photographed under a microscope. The photos were saved. Then the cells were collected for flow cytometry, and the cells were washed twice with flow buffer (PBS + 2% FBS). 0.5 µl of AF647 anti-calreticulin antibody (abcam, catalog number: ab196159, batch number: CR33676773) was added to each well, and fully mixed. The cells were incubated at 4 °C for 20 minutes in the dark. […] The mixture was incubated at room temperature in the dark for 15 minutes, and then analyzed on a flow cytometer.

[4] = tested on: mouse colon cancer CT26 cells; assay: Docetaxel/Eribulin/Paclitaxel and Defactinib: microscopy and CRT/Annexin-V/PI flow cytometry; assay type: cell-based; settings: 48 hours, Defactinib 5 µM, Docetaxel 0.3 µM, Eribulin 0.3 µM, Paclitaxel 6 µM, alone or combined with Defactinib
Procedure: CT26 cells were cultured in monolayer in vitro under the following conditions: RPMI-1640 medium with 10% fetal bovine serum, 37°C, 5% CO2. Trypsin was used for routine digestion and passage treatment two to three times a week. When the cells were in the exponential growth phase and the adherent confluence reached 80%-90%, the cells were harvested and plated.
(§1) CT26 cells were digested with trypsin, and then the cells were collected and counted. Based on the counting results, the cells were diluted with the corresponding complete culture medium to a concentration of 50,000 cells per milliliter. Then the cells were plated in 12-well cell culture plates, with 2 ml of cell suspension per well, i.e., 100,000 cells.
(§2) After plating, the cells were cultured in a 37°C and 5% CO2 incubator.
After 24 hours of plating, the test compounds Docetaxel, Eribulin, Paclitaxel and Defactinib were added to different wells, respectively.
(§3) After 48 hours of drug action, the cells were photographed using a microscope, and then trypsinized and collected for flow cytometry staining.
The cells were washed twice with flow buffer (DPBS + 2% FBS). 0.5 µL of AF647 Anti-Calreticulin Antibody was added to each well, and mixed well. The cells were incubated at 4°C in the dark for 20 min. After washing once with flow buffer, 195 µL of Annexin-V-FITC binding solution was added, and the cells were gently mixed well. 5 µL of Annexin-V-FITC antibody was added. After further mixing, 10 µL of PI dye was added and mixed well. The cells were incubated at room temperature in the dark for 15 min. The cells were then subjected to flow cytometry.
(§4) After the assay, the cell positive rate was analyzed by Flowjo (V10) software.

[5] = tested on: mouse breast cancer 4T1 cells; assay: Docetaxel/Eribulin and Defactinib: microscopy and CRT/Annexin-V/PI flow cytometry; assay type: cell-based; settings: 48 hours, Defactinib 5 µM, Docetaxel 0.3 µM, Eribulin 0.1 µM, alone or combined with Defactinib
Procedure: 4T1 cells were cultured in a monolayer in vitro in RPMI-1640 medium with 10% fetal bovine serum in a 37 °C, 5% CO2 incubator. Trypsin was used for routine digestion and passage treatment two to three times a week. When the cells were in the exponential growth phase and the adherent confluence reached 80%-90%, the cells were harvested and plated.
as §1, with “4T1” for “CT26”
as §2
After 24 hours of plating, the test compounds Defactinib, Docetaxel and Eribulin were added to different wells, respectively.
as §3
The cells were washed twice with flow buffer (DPBS + 2% FBS). 0.5 µL of AF647 Anti-Calreticulin Antibody was added to each well, and mixed well. The cells were incubated at 4°C in the dark for 20 min. […]
as §4

Compound: CC(=O)O[C@@]12CO[C@@H]1C[C@H](O)[C@@]1(C)C(=O)[C@H](O)C3=C(C)[C@@H](OC(=O)[C@H](O)[C@@H](NC(=O)OC(C)(C)C)c4ccccc4)C[C@@](O)([C@@H](OC(=O)c4ccccc4)[C@H]21)C3(C)C [Docetaxel]
- apoptosis (Annexin V kit) [1]: significantly enhanced
- release and exposure of Calreticulin [2]: significantly enhanced
- cell status under a microscope [3]: poor
- cell status (cell death) under a microscope [4]: obvious
- cell status (cell death) under a microscope [5]: obvious

— patent EP4578449A1, “PHARMACEUTICAL COMBINATION OF FAK INHIBITOR AND MICROTUBULE INHIBITOR AND USE THEREOF” (Inxmed (Nanjing) Co., Ltd., priority 2022, dated 2024)
